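Cells were grown in 96-well plates and exposed to each compound for 48 hours at five concentrations; endpoints were interpolated linearly between bracketing concentrations, or set to the highest concentration if not reached. At the TGI there is no net growth.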
What was measured:
Assay in all cases: NCI tumour cell line growth inhibition, 48 h
SK-OV-3 ovarian = tested on: SK-OV-3 ovarian
LOX IMVI melanoma = tested on: LOX IMVI melanoma
MALME-3M melanoma = tested on: MALME-3M melanoma
SK-MEL-2 melanoma = tested on: SK-MEL-2 melanoma
XF 498 CNS = tested on: XF 498 CNS
SF-268 CNS = tested on: SF-268 CNS
DMS 114 small cell lung = tested on: DMS 114 small cell lung
RPMI-8226 leukemia = tested on: RPMI-8226 leukemia
NCI-H460 lung = tested on: NCI-H460 lung
KM20L2 colon = tested on: KM20L2 colon
COLO 205 colon = tested on: COLO 205 colon
UACC-62 melanoma = tested on: UACC-62 melanoma
SNB-78 CNS = tested on: SNB-78 CNS
DLD-1 colon = tested on: DLD-1 colon
SK-MEL-28 melanoma = tested on: SK-MEL-28 melanoma
RXF 393 renal = tested on: RXF 393 renal
NCI-H226 lung = tested on: NCI-H226 lung
UO-31 renal = tested on: UO-31 renal
DMS 273 small cell lung = tested on: DMS 273 small cell lung
IGROV1 ovarian = tested on: IGROV1 ovarian
SF-539 CNS = tested on: SF-539 CNS
786-0 renal = tested on: 786-0 renal
OVCAR-8 ovarian = tested on: OVCAR-8 ovarian
TK-10 renal = tested on: TK-10 renal
ACHN renal = tested on: ACHN renal
SF-295 CNS = tested on: SF-295 CNS
M19-MEL melanoma = tested on: M19-MEL melanoma
A549 NSCLC = tested on: A549 NSCLC
HCT-15 colon = tested on: HCT-15 colon
OVCAR-4 ovarian = tested on: OVCAR-4 ovarian
SNB-19 CNS = tested on: SNB-19 CNS
M14 melanoma = tested on: M14 melanoma
LXFL 529 NSCLC = tested on: LXFL 529 NSCLC
EKVX NSCLC = tested on: EKVX NSCLC
HOP-62 NSCLC = tested on: HOP-62 NSCLC
HCT-116 colon = tested on: HCT-116 colon
HOP-92 NSCLC = tested on: HOP-92 NSCLC
HOP-18 NSCLC = tested on: HOP-18 NSCLC
U251 CNS = tested on: U251 CNS
OVCAR-3 ovarian = tested on: OVCAR-3 ovarian
NCI-H522 lung = tested on: NCI-H522 lung
OVCAR-5 ovarian = tested on: OVCAR-5 ovarian
RXF-631 renal = tested on: RXF-631 renal
SW-620 colon = tested on: SW-620 colon
A498 renal = tested on: A498 renal
NCI-H23 lung = tested on: NCI-H23 lung
SNB-75 CNS = tested on: SNB-75 CNS
K-562 leukemia = tested on: K-562 leukemia
MOLT-4 leukemia = tested on: MOLT-4 leukemia
SN12C renal = tested on: SN12C renal
CCRF-CEM leukemia = tested on: CCRF-CEM leukemia
KM12 colon = tested on: KM12 colon
SR leukemia = tested on: SR leukemia
SK-MEL-5 melanoma = tested on: SK-MEL-5 melanoma
CAKI-1 renal = tested on: CAKI-1 renal
HCC-2998 colon = tested on: HCC-2998 colon
HL-60(TB) leukemia = tested on: HL-60(TB) leukemia
UACC-257 melanoma = tested on: UACC-257 melanoma
HT29 colon = tested on: HT29 colon

Measured: TGI

Cn1ncc(=S)[nH]c1=S
not listed: KM12 colon | SR leukemia | SK-MEL-5 melanoma | CAKI-1 renal | HCC-2998 colon | HL-60(TB) leukemia | UACC-257 melanoma | HT29 colon
> 100 µM: all other assays above

C/C(=N\N=C(N)N)C(CN(CC(C)C)CC(C)C)C(=O)Nc1ccc(C)cc1C (centres undefined)
not listed: RPMI-8226 leukemia
> 100 µM: all other assays above
